# Reference: PubChem BioAssay (NCI)
#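 Assay format: 96-well plates, 48-hour exposure. The concentration for 50% growth inhibition is given as GI50. TGI denotes the concentration required for complete inhibition of growth.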
# Tests used:
# Test in all cases: NCI anticancer screen, dose series, 48 h
# [1] = system: DU-145 prostate
# [2] = system: EKVX NSCLC
# [3] = system: HOP-62 NSCLC
# [4] = system: M14 melanoma
# [5] = system: MDA-MB-231 breast
# [6] = system: RXF 393 renal
# [7] = system: SN12C renal
# [8] = system: SR leukemia
# [9] = system: U251 CNS
# [10] = system: UACC-257 melanoma
SMILES,GI50 [1] [µM],TGI [1] [µM],GI50 [2] [µM],TGI [2] [µM],GI50 [3] [µM],TGI [3] [µM],GI50 [4] [µM],TGI [4] [µM],GI50 [5] [µM],TGI [5] [µM],GI50 [6] [µM],TGI [6] [µM],GI50 [7] [µM],TGI [7] [µM],GI50 [8] [µM],TGI [8] [µM],GI50 [9] [µM],TGI [9] [µM],GI50 [10] [µM],TGI [10] [µM]
Nc1cc(N)c2nc(-c3ccccc3)c(NCc3ccc(F)cc3)nc2c1,1.5,3.81,1.89,4.07,39.1,> 100,23.7,55.9,2.13,5.08,12.3,27.2,7.5,23.7,4.11,> 100,1.6,3.16,2.02,4.26
C/C=C/[C@@H]1OC(=O)C2=C[C@@H](O)[C@@H](/C=C/C)O[C@H]21,0.989,4.83,7.26,21.2,20,36.2,3.23,8.12,12.9,29.3,6.27,28.8,3.76,12.6,16.8,> 100,14.6,35.6,17.7,33
CC(C)c1ccc(Nc2nccc(-c3cnn4ncccc34)n2)cc1,0.809,> 9.19,0.64,10.2,0.563,2.59,0.688,2.48,0.726,> 17.9,0.28,0.827,0.66,> 17.9,0.234,> 25,0.559,> 9.71,0.563,1.6
CSc1ccccc1C#Cc1ccccc1C#CCCCCO,4.73,18,16.9,34.4,24.9,> 100,–,–,2.57,13.2,3.86,17.5,16,30.7,3.54,17.5,10.8,22.7,18.5,34.2
OCC1OC(n2cnc3c(=S)nc[nH]c32)C(O)C1O (stereo not drawn),–,> 2500,> 100,> 2500,1.48,> 2500,1.15,> 2500,14.1,> 2500,> 100,> 2500,34.3,> 2500,–,> 2500,58.3,> 2500,> 100,> 2500
CCNCCNc1cc(C2CCCCC2)c(C#N)c2nc3ccccc3n12,2.37,5.79,2.18,6.84,2.28,6.93,1.93,3.67,1.95,3.62,1.7,3.19,1.93,4.02,0.288,1.04,1.48,3.42,2.34,4.38
CCOC(=O)c1nc(Nc2ccc(Cl)cc2)c2ccccc2n1,7.39,15.1,13,44.1,16.4,> 50,12.4,30.6,14.1,42,7.35,16.8,11.5,27.4,8.87,> 50,8.86,18.5,13,30.6
O=C(N/N=C/c1cc([N+](=O)[O-])ccc1O)c1cccc2ccccc12,6.2,> 100,3.8,29.7,3.73,35.2,2.87,68.4,7.6,> 100,4.14,35.1,6.62,> 100,1.81,16.1,2.46,64.1,2.7,26.9
Nc1n[nH]c2ccc([C@@H]3Nc4ccc5[nH]ncc5c4[C@H]4C5C=CC(C5)[C@@H]34)cc12 (stereo partly drawn),0.445,> 30.8,0.505,43.2,0.52,20.7,0.231,1.13,0.694,12.4,0.11,0.599,0.52,28.2,0.144,> 100,0.433,22.2,12.5,58.5
COC(=O)C(F)C(Br)C(=O)OC (stereo not drawn),–,27.5,–,3.92,–,35.7,–,13.4,–,28.3,–,6.95,–,30.9,–,3.27,–,9.84,–,28.4
O=C(OCCBr)c1ccc(Cl)c([N+](=O)[O-])c1,2.31,5.27,18.4,37.1,1.91,3.63,16.4,36.6,8.3,21.6,15.5,29.9,17.1,33.2,7.9,31.5,1.71,3.2,9.02,22.9
Clc1nc(Cl)c(-c2ccccc2)c(Cl)n1,–,26.4,–,3.46,–,33,–,3.33,–,10.7,–,5.58,–,8.84,–,6.85,–,10,–,7.65
COc1cc(C2C3=C(COC3=O)Nc3cc4c(cc32)CCC4)cc2c1OCO2 (stereo not drawn),0.0411,0.296,0.486,43.3,0.0471,12,0.0743,3.48,0.0577,5.11,–,–,0.0595,20.2,0.0453,> 34.5,0.0452,4.61,1.13,63.3
CC(=O)O[C@H]1CC[C@@]2(C)[C@@H](CC[C@@H]3[C@@H]2CC[C@]2(C)C=C(C=O)C[C@@H]32)C1,4.75,15.9,–,–,10.5,23.1,4.74,20.8,10.6,27.5,–,–,3.42,10.6,3.19,9.94,2.02,4.9,12.2,26.3
Cn1cc(-c2ccc(-c3cn(C)c4ccc(Cl)cc34)s2)c2cc(Cl)ccc21,> 100,> 100,> 100,> 100,> 100,> 100,> 100,> 100,> 100,> 100,70.3,> 100,> 100,> 100,> 100,> 100,> 100,> 100,> 100,> 100
Nc1ccc(-c2ccc(N)cc2I)c(I)c1,21.8,59.9,19.1,70.1,17.5,39.4,12.2,34.4,16.6,46.4,10.9,28,19.7,55.8,5.1,39.8,16.3,35.6,21.5,53.8
CC(C)N1C(NNC(=O)c2cnccn2)=NS(=O)(=O)c2ccccc21,> 100,> 100,> 100,> 100,–,–,> 100,> 100,> 100,> 100,> 100,> 100,> 100,> 100,> 100,> 100,> 100,> 100,> 100,> 100
FC(F)(F)c1ccc(-c2cnc(Cl)nc2NCc2cc(C(F)(F)F)cc(C(F)(F)F)c2)cc1,3.92,> 100,–,–,3.86,> 100,4.44,> 100,2.19,6.4,3.15,> 100,2.81,> 100,3.67,> 100,2.81,> 100,2.18,7.28
COc1cc(C2CC(c3ccc(N(C)C)cc3)=NN2C(C)=O)cc(OC)c1OC (stereo not drawn),2.29,> 35,5.53,> 100,2.16,> 100,1.39,> 100,4.74,> 100,2.73,> 22.9,11.3,> 100,2.39,> 100,1.65,> 100,> 69.5,> 100
CCC(/C=C/c1ccccc1)=N\Nc1ccc(Cl)c(Cl)c1,–,> 100,–,> 100,–,> 100,–,> 100,–,55.7,–,58.4,–,74.8,–,> 100,–,> 100,–,> 100
Cc1cn2c(/C=N/Nc3ccccn3)c(-c3ccc(Cl)c([N+](=O)[O-])c3)nc2s1,6.39,29.8,21.6,> 50,10.7,18.9,10.8,23,6.73,18.2,–,–,14.3,42.4,1.86,10.6,8.22,15.4,21.3,> 50
CCCCN(CCCC)c1ccc(C(=NC(C)CCCN(CC)CC)c2ccc(N(C)C)cc2)cc1 (stereo not drawn),1.57,6.04,1.05,2.95,0.829,1.63,0.873,1.72,0.863,1.82,0.73,1.46,–,–,0.708,1.82,0.81,1.58,0.915,1.83
O=C(CCCSc1nc(-c2ccccc2)cc(-c2ccc(Cl)cc2)n1)NO,1.39,8.94,1.8,11.5,1.04,17.4,–,–,2.12,11.6,0.445,2.55,1.18,7.72,0.364,13.2,1.66,12.7,2.92,12.4
CC#CC1C(OC(=O)c2ccccc2)CCCC1(CI)N=[N+]=[N-] (stereo not drawn),–,–,–,> 100,–,> 100,–,> 100,–,–,–,> 100,–,> 100,–,55.2,–,> 100,–,> 100
COCCNc1cc(NC(=O)N2CCCc3cc(CN4CCN(C)CC4=O)c(C=O)nc32)ncc1C#N,> 50,> 50,> 50,> 50,> 50,> 50,> 50,> 50,44.8,> 50,–,–,> 50,> 50,> 50,> 50,> 50,> 50,> 50,> 50
O=C(COc1cccc(/C=C2\COc3ccc(Cl)cc3C2=O)c1)c1ccc(Cl)cc1,14.7,27.8,12.5,25.8,14.3,27.7,11.6,24.4,4.08,21.1,–,–,13.7,28.5,1.71,5.11,13.8,26.7,18.5,33.4
C/C=C/C=C/CCCCCCCCCCCCCC1(OC)C=CC(CC(=O)OC)OO1 (stereo not drawn),–,–,5.69,17.5,20,41.6,–,28.6,–,–,4.24,15.3,–,26.3,–,7.13,–,31.2,–,35.4
CC(=O)Nc1ccc(/C=C/C(=O)c2sc(-c3nc(C)c(C(=O)/C=C/c4ccc(NC(C)=O)cc4)s3)nc2C)cc1,–,–,–,> 100,–,> 100,–,> 100,–,–,–,> 100,–,> 100,–,> 100,–,> 100,–,> 100
